Measurements as given in patent publication US20160108414A1, “GROWTH-RELATED ENOX PROTEINS FROM PLANTS WITH YIELD ENHANCEMENT POTENTIAL, SEQUENCES AND METHODS” (Mor-NuCo Enterprises, Inc., priority 2013, published 2016).
Values belong to the molecule of their own block, whether it stands above or below them.

What was measured:
Type in all cases: biochemical
recombinant ABP-20 = target: T1, recombinant ABP-20 (Prunus persica, UniProt O04011, DUP151-151); test: NADH oxidase activity of IEF-purified recombinant ABP-20 (dNOX); details: for NADH oxidase activity: average of 3 determinations ± SD, None = 0.1 ± 0.08
T1 construct: made in house; host or cells: E. coli BL21 (DE3), pET11b
Procedure: (§1) Oxidation of NADH was determined spectrophotometrically from the disappearance of NADH measured at 340 nm in a reaction mixture containing 25 mM Tris-MES (pH 7.2), 100 μM GSH, 1 mM KCN to inhibit mitochondrial oxidase activity, 150 μM NADH and the enzyme at 37° C. with temperature control (±0.5° C.) and stirring. Prior to assay, 1 μM reduced glutathione was added to reduce the protein in the presence of substrate. After 10 min, 0.03% hydrogen peroxide was added to reoxidize the protein under renaturing conditions and in the presence of substrate to start the reaction. Activities were measured using paired Hitachi U3210 or paired SLM Aminco 2000 spectrophotometers both with continuous recording. Assays were run for 1 min and were repeated on the same sample at intervals of 1.5 min for the times indicated. An extinction coefficient of 6.22 cm^−1 mM^−1 was used to determine specific activity.
Cells were centrifuged at 5,000 g for 6 min. Pellets were then resuspended in 20 mM Tris-HCl, pH 8.0, containing 0.5 mM PMSF, 1 mM benzamidine and 1 mM 6-aminocaproic and lysed by three passages through a French pressure cell (SLM Aminco) at 20,000 psi. Expression of the recombinant ABP-20 of about 20 kDa was confirmed by SDS-PAGE with silver staining. Transformed cells were stored at −80° C. in a standard glycerol stock solution. The recombinant proteins were further purified on Criterion IEF gels (Bio-Rad, Hercules, Calif.). The IEF gel was cut into seven equal segments. The pH represented by each slice was based on IEF standards (Bio-Rad). The slices were soaked in 15 mM Tris-Mes buffer, pH 7, at 4° C. for overnight with shaking. The gel-free extracts were assayed for ENOX activities as follows: […]

[1] = tested on: recombinant Arabidopsis ENOX1; test: NADH oxidase activity of IEF-purified recombinant Arabidopsis ENOX1; details: for NADH oxidase activity: average of 3 determinations ± SD, None = 2.7 ± 0.4; for Effect on ENOX1 activity eluted from the IEF gel: concentrations of Table 5
Procedure: Cells were centrifuged at 5,000 g for 6 min. Pellets were then resuspended in 20 mM Tris-HCl, pH 8.0, containing 0.5 mM PMSF, 1 mM benzamidine and 1 mM 6-aminocaproic and lysed by three passages through a French pressure cell (SLM Aminco) at 20,000 psi. Expression of the recombinant Arabidopsis ENOX1 of about 14 kDa was confirmed by SDS-PAGE with silver staining. Transformed cells were stored at −80° C. in a standard glycerol stock solution. The Arabidopsis ENOX1 proteins were further purified on Criterion IEF gels (Bio-Rad, Hercules, Calif.). The IEF gel was cut into seven equal segments. The pH represented by each slice was based on IEF standards (Bio-Rad). The slices were soaked in 15 mM Tris-Mes buffer, pH 7, at 4° C. for overnight with shaking. The gel-free extracts were assayed for ENOX1 activity.
as §1
IEF purified ENOX1 was concentrated to 0.7 mg/ml by using a Centricon concentrator (Millipore Corporation, Danvers, Mass.) fitted with a 10,000 nominal molecular weight limit ultracel YM membrane. Samples (50 μl) were combined with 1 μl of trifluoroacetic acid (TFA) in the presence or absence of 15 μl 10 mM bathocuproine. After 2 h of incubation at room temperature, the samples were dialyzed (Spectra/Pro Dialysis membrane, molecular weight cut-off 6-8,000, Spectrum Laboratories (Rancho Dominguez, Calif.) against 20 mM Tris-HCl, pH 8, at 4° C. overnight.

dNOX (ABP-20) [2] = test: NADH oxidation of dNOX (ABP-20) site-directed mutants
Procedure: as §1
(§2) Amino acids indicated were replaced by alanines by site-directed mutagenesis according to Braman et al. (Braman, J., Papworth, C. and Greener, A. 1996. Methods Mol. Biol. 57:32-44). Numbered amino acids and nucleotide positions of splice variant products refer to numbers assigned to amino acids of the full length transcript

dNOX (ABP-20) [3] = test: DTDP (protein disulfide-thiol) interchange of dNOX (ABP-20) site-directed mutants
Procedure: Protein disulfide-thiol interchange was determined spectrophotometrically from the increase in absorbance at 340 nm resulting from the cleavage of dithiodipyridine (DTDP (Morré, D. J., Gomez-Rey, M. L., Schramke, C., Em, O., Lawler, J., Hobeck, J. and Morré, D. M. 1999. Mol. Cell. Bochem. 200: 7-13). DTDP cleavage was buffered (50 mM Tris-MES, pH 7). The assay was preincubated (1 h at room temperature) with 0.5 μmoles 2,2′-dithiodipyridine (DTDP) in 5 μl of DMSO to react with endogenous reductants present with the plasma membranes. After 10 min, a further […] DTDP were added in 35 μl DMSO to start the reaction. The final reaction volume was […]. The reaction was monitored from the increase in absorbance at 340 nm. Specific activities were calculated using a milimolar absorption coefficient of 6.21.
as §2

Molecule: O=C(O)COc1cccc(Cl)c1Cl [2,3-dichlorophenoxyacetic acid]
- Effect on activity of recombinant ABP-20 (recombinant ABP-20): without effect
- NADH oxidase activity (recombinant ABP-20; addition 1 μM): 0.15 ± 0.01 µmol/min/mg

Molecule: COc1cc(CNC(=O)CCCC/C=C/C(C)C)ccc1O [Capsaicin]
- NADH oxidase activity ([1]; addition 1 μM): 3.7 ± 0.1 µmol/min/mg
- Effect on ENOX1 activity eluted from the IEF gel [1]: no inhibition was observed

Molecule: N.N.[Cl][Pt][Cl] [Cis-platinum]
- Effect on ENOX1 activity eluted from the IEF gel [1]: no inhibition was observed
- NADH oxidase activity ([1]; inhibitor 100 μM): 3.5 ± 0.002 µmol/min/mg
- Effect on activity of recombinant ABP-20 (recombinant ABP-20): inhibited the activity
- NADH oxidase activity (recombinant ABP-20; addition 1 μM): 0.2 ± 0.05 µmol/min/mg

Molecule: COc1cccc2c1C(=O)c1c(O)c3c(c(O)c1C2=O)C[C@@](O)(C(=O)CO)C[C@@H]3O[C@H]1C[C@H](N)[C@H](O)[C@H](C)O1 [Doxorubicin]
- Effect on activity of recombinant ABP-20 (recombinant ABP-20): inhibited the activity
- NADH oxidase activity (recombinant ABP-20; addition 1 μM): 0.2 ± 0.05 µmol/min/mg

- Effect on ENOX1 activity eluted from the IEF gel [1]: no inhibition was observed
- NADH oxidase activity ([1]; inhibitor 500 μM): 3.9 ± 0.05 µmol/min/mg
Molecule: O=C(O[C@@H]1Cc2c(O)cc(O)cc2O[C@@H]1c1cc(O)c(O)c(O)c1)c1cc(O)c(O)c(O)c1 [EGCg]

- NADH oxidase activity ([1]; inhibitor 100 μM): 3.0 ± 0.5 µmol/min/mg
Molecule: O=C(O)c1cc(O)c(O)c(O)c1 [Gallic acid]

Molecule: CC1=CC(=O)[C@@H](O)[C@]2(C)[C@H]3[C@@]4(O)OC[C@]35[C@H]([C@@H](C)[C@H]4O)[C@@H](O)C(=O)O[C@@H]5C[C@@H]12 [Glaucarubolone]
- Effect on activity of recombinant ABP-20 (recombinant ABP-20): inhibited the activity
- NADH oxidase activity (recombinant ABP-20; addition 1 μM): 0.2 ± 0.06 µmol/min/mg

Molecule: O=C(O)Cc1c[nH]c2ccccc12 [Indole-3-acetic acid]
- NADH oxidase activity (recombinant ABP-20; addition 1 μM): 0.8 ± 0.05 µmol/min/mg
- optimum concentration for activation (recombinant ABP-20; higher concentration less effective): about 1 μM

- Effect on ENOX1 activity eluted from the IEF gel [1]: inhibited
- NADH oxidase activity ([1]; inhibitor 100 μM): 1.8 ± 0.15 µmol/min/mg
Molecule: CC(=O)Nc1cc(NS(=O)(=O)C(F)(F)F)c(C)cc1C [Mefluidide, N-[2,4-Dimethyl-5-[[(trifluoromethyl)sulfonyl]amino]phenyl] acetamide]

Molecule: O=C(O)c1cc[c]([Hg][Cl])cc1 [PCMB]
- Effect on activity of recombinant ABP-20 (recombinant ABP-20): inhibited
- NADH oxidase activity (recombinant ABP-20; addition 100 μM): 0.1 ± 0.05 µmol/min/mg

Molecule: O=S(=O)(O)c1cc[c]([Hg][Cl])cc1 [PCMS]
- Effect on activity of recombinant ABP-20 (recombinant ABP-20): inhibited
- NADH oxidase activity (recombinant ABP-20; addition 100 μM): 0.3 ± 0.2 µmol/min/mg

Molecule: CC[C@@H](C)C(=O)O[C@H]1C(=O)O[C@@H]2C[C@H]3C(C)=CC(=O)[C@@H](O)[C@]3(C)[C@H]3[C@@H](O)[C@H](O)[C@]4(C)OC[C@]32[C@@H]14 [Simalikalactone D]
- NADH oxidase activity ([1]; addition 1 μM): 0.9 ± 0.1 µmol/min/mg
- Effect on ENOX1 activity eluted from the IEF gel [1]: inhibited
- Effect on activity of recombinant ABP-20 (recombinant ABP-20): without effect
- NADH oxidase activity (recombinant ABP-20; addition 1 μM): 0.65 ± 0.07 µmol/min/mg

Molecule: CCS(=O)(=O)c1nc2ccccn2c1S(=O)(=O)NC(=O)Nc1nc(OC)cc(OC)n1 [Sulfonsulfuron]
- Effect on ENOX1 activity eluted from the IEF gel [1]: inhibited
- NADH oxidase activity ([1]; inhibitor 100 μM): 1.2 ± 0.5 µmol/min/mg

- NADH oxidase activity ([1]; inhibitor 10 μM): 3.4 ± 0.2 µmol/min/mg
Molecule: OCCc1ccc(O)cc1 [Tyrosol]

Molecule: Cc1cc(-c2ccccc2)c2ccc3c(-c4ccccc4)cc(C)nc3c2n1 [bathocuproine]
- NADH oxidase activity, 24 min period ([1]; assayed with TFA and bathocuproine, FIG. 12): much reduced
- dNOX activity after unfolding (recombinant ABP-20; trifluoroacetic acid plus bathocuproine, FIG. 30B): activity was lost

- Period length of ENOX1 activity ([1]; assayed in heavy water, normal period 24 min): about 30 min
Molecule: [2H]O[2H] [heavy water, Deuterium Oxide]

- New maximum after melatonin addition (phasing of 24 min period) ([1]; 1 μM melatonin): 24 min
Molecule: COc1ccc2[nH]cc(CCNC(C)=O)c2c1 [melatonin]

Molecule: Trans-platinum
- Effect on activity of recombinant ABP-20 (recombinant ABP-20): without effect
- NADH oxidase activity (recombinant ABP-20; addition 1 μM): 0.7 ± 0.1 µmol/min/mg

B1: G59A: ABP-20 with G59 replaced by alanine (adenine nucleotide binding motif) (protein, UniProt O04011 24-214, looked up, variant G59A)
Auxin-binding protein ABP20: AVQDFCVADLAAPEGPAGFSCKKPASVKVNDFVFSALGIAGNTSNIIKAAVTPAFVAQFPGVNGLGISIARLDLAVGGVVPFHTHPGASEVLIVAQGTICAGFVASDNTPYLQTLEKGDIMVFPQGLLHFQVNGGEAPALAFASFGSASPGLQILDFALFKNDLPTEVIAQTTFLDAAQIKKLKGVLGGTN
- Effect of replacement on NADH oxidation (dNOX (ABP-20) [2]): largely eliminated NADH oxidation
- NADH Oxidation (dNOX (ABP-20) [2]): 0.06 ± 0.02 μmoles/min/mg protein
- DTDP Interchange (dNOX (ABP-20) [3]): 0.07 ± 0.02 μmoles/min/mg protein
- Effect of replacement on disulfide-thiol interchange (dNOX (ABP-20) [3]): without effect

B2: H106A: ABP-20 putative copper site replacement (protein, UniProt O04011 24-214, looked up, variant H106A)
Auxin-binding protein ABP20: AVQDFCVADLAAPEGPAGFSCKKPASVKVNDFVFSGLGIAGNTSNIIKAAVTPAFVAQFPGVNGLGISIARLDLAVGGVVPFATHPGASEVLIVAQGTICAGFVASDNTPYLQTLEKGDIMVFPQGLLHFQVNGGEAPALAFASFGSASPGLQILDFALFKNDLPTEVIAQTTFLDAAQIKKLKGVLGGTN
- Effect of replacement on NADH oxidation (dNOX (ABP-20) [2]): near background
- NADH Oxidation (dNOX (ABP-20) [2]): 0.04 ± 0.01 μmoles/min/mg protein
- DTDP Interchange (dNOX (ABP-20) [3]): 0.02 ± 0.01 μmoles/min/mg protein
- Effect of replacement on disulfide-thiol interchange (dNOX (ABP-20) [3]): near background

B3: H152A: ABP-20 putative copper site replacement (protein, UniProt O04011 24-214, looked up, variant H152A)
Auxin-binding protein ABP20: AVQDFCVADLAAPEGPAGFSCKKPASVKVNDFVFSGLGIAGNTSNIIKAAVTPAFVAQFPGVNGLGISIARLDLAVGGVVPFHTHPGASEVLIVAQGTICAGFVASDNTPYLQTLEKGDIMVFPQGLLAFQVNGGEAPALAFASFGSASPGLQILDFALFKNDLPTEVIAQTTFLDAAQIKKLKGVLGGTN
- Effect of replacement on NADH oxidation (dNOX (ABP-20) [2]): near background
- NADH Oxidation (dNOX (ABP-20) [2]): 0.03 ± 0.01 μmoles/min/mg protein
- DTDP Interchange (dNOX (ABP-20) [3]): 0.02 ± 0.01 μmoles/min/mg protein
- Effect of replacement on disulfide-thiol interchange (dNOX (ABP-20) [3]): near background

B4: None (Wild Type): recombinant auxin-activated ENOX protein ABP-20 (Prunus persica), SEQ ID NO: 8, unmodified (protein, listed as Prunus persica)
chain: MPQATMIFPILFTFFLLLSSSNAAVQDFCVADLAAPEGPAGFSCKKPASVKVNDFVFSGLGIAGNTSNIIKAAVTPAFVAQFPGVNGLGISIARLDLAVGGVVPFHTHPGASEVLIVAQGTICAGFVASDNTPYLQTLEKGDIMVFPQGLLLHFQVNGGEAPALAFASFGSASPGLQILDFALFKNDLPTEVIAQTTFLDAAQIKKLKGVLGGTN
modifications: DISULFID (29)..(44); BINDING (59)..(64); BINDING (106)..(108); BINDING (113)..(113); BINDING (150)..(152)
- NADH Oxidation (dNOX (ABP-20) [2]): 0.8 ± 0.1 μmoles/min/mg protein
- DTDP Interchange (dNOX (ABP-20) [3]): 0.9 ± 0.05 μmoles/min/mg protein
